Article PMC2705655, “The Nicotinic Acetylcholine Receptors of the Parasitic Nematode Ascaris suum: Formation of Two Distinct Drug Targets by Varying the Relative Expression Levels of Two Subunits” (PLoS Pathogens, 2009)

Legend:
Experiment in all cases: two-electrode voltage clamp, Xenopus oocytes
Format in all cases: cell-based
[1] = target: T1, 5:1 Asu-unc-38:Asu-unc-29 receptor, putative (Asu-UNC-38)3(Asu-UNC-29)2, N-subtype nAChR (Ascaris suum, UniProt A7UFK6+A9XWS2)
T1 construct: full-length cDNAs of both subunits in pT7TS, cRNAs co-injected 5:1 into Xenopus oocytes; no tag
T1 sequence (A7UFK6 22-513): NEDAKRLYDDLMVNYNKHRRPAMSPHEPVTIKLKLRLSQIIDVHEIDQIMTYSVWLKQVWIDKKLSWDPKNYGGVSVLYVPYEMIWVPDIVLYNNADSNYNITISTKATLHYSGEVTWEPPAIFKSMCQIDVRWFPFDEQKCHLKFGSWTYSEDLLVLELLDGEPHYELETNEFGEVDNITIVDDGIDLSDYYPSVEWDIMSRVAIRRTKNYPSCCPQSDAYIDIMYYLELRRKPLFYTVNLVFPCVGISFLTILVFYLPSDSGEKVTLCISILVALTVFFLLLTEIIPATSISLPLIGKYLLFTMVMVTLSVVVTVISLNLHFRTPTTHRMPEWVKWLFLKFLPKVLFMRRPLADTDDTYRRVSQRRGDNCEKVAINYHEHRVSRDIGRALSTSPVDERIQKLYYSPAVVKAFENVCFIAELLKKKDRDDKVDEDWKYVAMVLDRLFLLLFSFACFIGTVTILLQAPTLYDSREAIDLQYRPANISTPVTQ
T1 sequence (A9XWS2 27-513): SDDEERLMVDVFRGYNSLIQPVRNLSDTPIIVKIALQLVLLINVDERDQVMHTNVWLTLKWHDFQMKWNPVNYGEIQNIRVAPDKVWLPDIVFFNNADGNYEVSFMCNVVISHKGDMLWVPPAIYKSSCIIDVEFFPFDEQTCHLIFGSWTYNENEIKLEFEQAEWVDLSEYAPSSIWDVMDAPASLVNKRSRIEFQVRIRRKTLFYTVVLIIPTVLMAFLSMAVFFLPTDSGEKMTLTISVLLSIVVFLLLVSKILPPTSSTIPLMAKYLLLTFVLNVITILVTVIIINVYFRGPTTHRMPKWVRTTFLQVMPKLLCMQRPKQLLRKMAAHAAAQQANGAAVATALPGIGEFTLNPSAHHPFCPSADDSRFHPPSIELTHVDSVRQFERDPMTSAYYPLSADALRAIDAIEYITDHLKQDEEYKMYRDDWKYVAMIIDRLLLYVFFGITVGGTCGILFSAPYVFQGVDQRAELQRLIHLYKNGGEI
From the text: two-electrode voltage clamp, Xenopus oocytes on 5:1 Asu-unc-38:Asu-unc-29 receptor, putative (Asu-UNC-38)3(Asu-UNC-29)2, N-subtype nAChR

[2] = target: T2, 1:5 Asu-unc-38:Asu-unc-29 receptor, putative (Asu-UNC-38)2(Asu-UNC-29)3, L-subtype nAChR (Ascaris suum, UniProt A7UFK6+A9XWS2); conditions: -60 mV; cRNA ratio 1:5; response too small to quantify
T2 construct: full-length cDNAs of both subunits in pT7TS, cRNAs co-injected 1:5 into Xenopus oocytes; no tag
T2 sequence (A7UFK6 22-513): T1 sequence (A7UFK6 22-513)
T2 sequence (A9XWS2 27-513): T1 sequence (A9XWS2 27-513)

[3] = target: T2, 1:5 Asu-unc-38:Asu-unc-29 receptor, putative (Asu-UNC-38)2(Asu-UNC-29)3, L-subtype nAChR
From the text: two-electrode voltage clamp, Xenopus oocytes on 1:5 Asu-unc-38:Asu-unc-29 receptor, putative (Asu-UNC-38)2(Asu-UNC-29)3, L-subtype nAChR

[4] = target: T1, 5:1 Asu-unc-38:Asu-unc-29 receptor, putative (Asu-UNC-38)3(Asu-UNC-29)2, N-subtype nAChR; conditions: -60 mV; cRNA ratio 5:1; response too small to quantify

Structure (SMILES)	EC50 [1] [nM]	two-electrode voltage clamp, Xenopus oocytes [2]	EC50 [3] [nM]	two-electrode voltage clamp, Xenopus oocytes [4]
CN1CCCN=C1/C=C/c1cccc(O)c1 [oxantel]	4070	but gave a negligible response to oxantel		
CN1CCCN=C1/C=C/c1cccs1 [pyrantel]			398	but gave very little response to pyrantel
